In patent US20250026708A1, “PROCESS FOR PREPARATION OF TRIHEPTANOIN” (Navinta, LLC, priority 2023, published 2025):

Test: Stability study of triheptanoin on storage (acid value, diester impurities, purity by GC and/or HPLC)
Type: physicochemical
Procedure: The stability data of the present invention at different stability condition(s) from initial to up to 6 (six) months is described below in Table-I: As shown in Table-I, two batches (Example 16 & Example 17) of triheptanoin prepared by the present method with acid values of […] about 0.2 mg KOH/gm were studied for stability. The samples were kept at 25° C./60% RH, 40° C./75% RH for up to 6 months and at 50° C. for up to 3 months. During the stability study, the inventors of the present invention have focused on % of 1,2-Diester Impurity, % of 1,3-Diester Impurity and purity of triheptanoin.

[1] = 25° C./60% RH, 3 M, listed as Example 17
[2] = 25° C./60% RH, 6 M, listed as Example 17
[3] = 25° C./60% RH, 40° C./75% RH up to 6 months, 50° C. up to 3 months, acid value greater than about 0.2 mg KOH/gm
[4] = 40° C./75% RH, 1 M, listed as Example 17
[5] = 40° C./75% RH, 2 M, listed as Example 17
[6] = 40° C./75% RH, 3 M, listed as Example 17
[7] = 40° C./75% RH, 6 M, listed as Example 17
[8] = 50° C., 1 M, listed as Example 17
[9] = 50° C., 2 M, listed as Example 17
[10] = 50° C., 3 M, listed as Example 17

**Q.** Which results are given for CCCCCCC(=O)OCC(COC(=O)CCCCCC)OC(=O)CCCCCC [Example 16, heptanoic acid, 1,1′,1″-(1,2,3 propanetriyl) ester]?
**A.** 1,2 Diester Impurity (NMT 0.05%) (25° C./60% RH, 1 M): 0.004%; 1,3 Diester Impurity (NMT 0.05%) (25° C./60% RH, 1 M): 0.002%; Acid value (25° C./60% RH, 1 M): 0.24 mg KOH/gm; Triheptanoin purity (25° C./60% RH, 1 M): 99.83%; Triheptanoin purity (25° C./60% RH, 1 M, listed as Example 17): 99.82%; 1,2 Diester Impurity (NMT 0.05%) (25° C./60% RH, 3 M): 0.007%; 1,3 Diester Impurity (NMT 0.05%) (25° C./60% RH, 3 M): 0.002%; Acid value (25° C./60% RH, 3 M): 0.23 mg KOH/gm; Triheptanoin purity (25° C./60% RH, 3 M): 99.82%; 1,2 Diester Impurity (NMT 0.05%) [1]: 0.004%; 1,3 Diester Impurity (NMT 0.05%) [1]: 0.003%; Acid value [1]: 0.22 mg KOH/gm; Triheptanoin purity [1]: 99.84%; 1,2 Diester Impurity (NMT 0.05%) (25° C./60% RH, 6 M): 0.005%; 1,3 Diester Impurity (NMT 0.05%) (25° C./60% RH, 6 M): 0.009%; Acid value (25° C./60% RH, 6 M): 0.27 mg KOH/gm; Triheptanoin purity (25° C./60% RH, 6 M): 99.81%; 1,2 Diester Impurity (NMT 0.05%) [2]: 0.003%; 1,3 Diester Impurity (NMT 0.05%) [2]: 0.004%; Triheptanoin purity [2]: 99.82%; 1,2-Diester and 1,3-Diester impurities during the storage [3]: not increasing; assay potency of triheptanoin during the storage [3]: maintained; purity of triheptanoin during storage as measured by GC and/or HPLC [3]: greater than 99.7%; 1,2 Diester Impurity (NMT 0.05%) (40° C./75% RH, 1 M): 0.005%; 1,3 Diester Impurity (NMT 0.05%) (40° C./75% RH, 1 M): 0.003%; Acid value (40° C./75% RH, 1 M): 0.24 mg KOH/gm; Triheptanoin purity (40° C./75% RH, 1 M): 99.83%; 1,2 Diester Impurity (NMT 0.05%) [4]: 0.004%; 1,3 Diester Impurity (NMT 0.05%) [4]: 0.004%; Triheptanoin purity [4]: 99.82%; 1,2 Diester Impurity (NMT 0.05%) (40° C./75% RH, 2 M): 0.008%; 1,3 Diester Impurity (NMT 0.05%) (40° C./75% RH, 2 M): 0.005%; Acid value (40° C./75% RH, 2 M): 0.24 mg KOH/gm; Triheptanoin purity (40° C./75% RH, 2 M): 99.78%; 1,2 Diester Impurity (NMT 0.05%) [5]: 0.006%; 1,3 Diester Impurity (NMT 0.05%) [5]: 0.003%; Acid value [5]: 0.25 mg KOH/gm; Triheptanoin purity [5]: 99.81%; 1,2 Diester Impurity (NMT 0.05%) (40° C./75% RH, 3 M): 0.013%; 1,3 Diester Impurity (NMT 0.05%) (40° C./75% RH, 3 M): 0.007%; Acid value (40° C./75% RH, 3 M): 0.24 mg KOH/gm; Triheptanoin purity (40° C./75% RH, 3 M): 99.82%; 1,2 Diester Impurity (NMT 0.05%) [6]: 0.006%; 1,3 Diester Impurity (NMT 0.05%) [6]: 0.005%; Acid value [6]: 0.23 mg KOH/gm; 1,2 Diester Impurity (NMT 0.05%) (40° C./75% RH, 6 M): 0.018%; 1,3 Diester Impurity (NMT 0.05%) (40° C./75% RH, 6 M): 0.015%; Acid value (40° C./75% RH, 6 M): 0.26 mg KOH/gm; Triheptanoin purity (40° C./75% RH, 6 M): 99.74%; 1,2 Diester Impurity (NMT 0.05%) [7]: 0.011%; 1,3 Diester Impurity (NMT 0.05%) [7]: 0.014%; Acid value [7]: 0.29 mg KOH/gm; Triheptanoin purity [7]: 99.81%; 1,2 Diester Impurity (NMT 0.05%) (50° C., 1 M): 0.008%; 1,3 Diester Impurity (NMT 0.05%) (50° C., 1 M): 0.005%; Acid value (50° C., 1 M): 0.24 mg KOH/gm; Triheptanoin purity (50° C., 1 M): 99.83%; 1,2 Diester Impurity (NMT 0.05%) [8]: 0.005%; 1,3 Diester Impurity (NMT 0.05%) [8]: 0.004%; Triheptanoin purity [8]: 99.81%; 1,2 Diester Impurity (NMT 0.05%) (50° C., 2 M): 0.014%; 1,3 Diester Impurity (NMT 0.05%) (50° C., 2 M): 0.010%; Acid value (50° C., 2 M): 0.24 mg KOH/gm; Triheptanoin purity (50° C., 2 M): 99.76%; 1,2 Diester Impurity (NMT 0.05%) [9]: 0.008%; 1,3 Diester Impurity (NMT 0.05%) [9]: 0.007%; Acid value [9]: 0.25 mg KOH/gm; Triheptanoin purity [9]: 99.78%; 1,2 Diester Impurity (NMT 0.05%) (50° C., 3 M): 0.014%; 1,3 Diester Impurity (NMT 0.05%) (50° C., 3 M): 0.012%; Acid value (50° C., 3 M): 0.25 mg KOH/gm; Triheptanoin purity (50° C., 3 M): 99.80%; 1,2 Diester Impurity (NMT 0.05%) [10]: 0.010%; 1,3 Diester Impurity (NMT 0.05%) [10]: 0.010%; Acid value [10]: 0.24 mg KOH/gm; Triheptanoin purity [10]: 99.83%; 1,2 Diester Impurity (NMT 0.05%) (Initial): 0.004%; 1,3 Diester Impurity (NMT 0.05%) (Initial): 0.002%; Acid value (Initial): 0.21 mg KOH/gm; Triheptanoin purity (Initial): 99.76%; 1,2 Diester Impurity (NMT 0.05%) (Initial, listed as Example 17): 0.003%; Triheptanoin purity (Initial, listed as Example 17): 99.77%
